Source: ChEMBL document CHEMBL1147492, “Small molecule biaryl FSH receptor agonists. Part 1: Lead discovery via encoded combinatorial synthesis” (Bioorg Med Chem Lett, 2004)

Target: T1, Follicle-stimulating hormone receptor (Homo sapiens, UniProt P23945)
T1 sequence (P23945 whole entry): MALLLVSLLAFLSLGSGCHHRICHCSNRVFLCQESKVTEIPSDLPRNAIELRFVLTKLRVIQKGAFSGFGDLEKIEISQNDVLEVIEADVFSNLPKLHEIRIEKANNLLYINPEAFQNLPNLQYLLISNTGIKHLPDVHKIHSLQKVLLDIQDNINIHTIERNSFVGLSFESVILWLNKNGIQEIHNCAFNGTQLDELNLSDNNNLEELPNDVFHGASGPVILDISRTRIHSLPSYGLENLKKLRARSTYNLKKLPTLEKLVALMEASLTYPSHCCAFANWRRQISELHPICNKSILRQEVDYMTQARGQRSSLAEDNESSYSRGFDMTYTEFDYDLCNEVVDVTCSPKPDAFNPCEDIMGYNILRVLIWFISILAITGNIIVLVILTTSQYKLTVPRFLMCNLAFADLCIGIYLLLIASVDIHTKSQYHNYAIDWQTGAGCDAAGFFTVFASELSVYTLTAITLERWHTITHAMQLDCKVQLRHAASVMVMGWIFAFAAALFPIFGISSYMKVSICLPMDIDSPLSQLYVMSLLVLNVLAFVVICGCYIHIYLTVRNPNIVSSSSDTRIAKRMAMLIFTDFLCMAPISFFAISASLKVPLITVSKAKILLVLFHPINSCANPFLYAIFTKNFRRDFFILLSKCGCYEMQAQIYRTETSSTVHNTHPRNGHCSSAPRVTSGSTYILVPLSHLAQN
Experiment: Agonistic activity against Follicle stimulating hormone receptor expressed in chinese hamster ovary cells(CHO)
Type: functional, cell-based

Row | Compound | EC50 [nM]
1 | CCCCCCNC(=O)CN1CC(=O)N(C)[C@@H](Cc2ccc(-c3cc(OC)c(OC)c(OC)c3)cc2)C1=O | 3000
2 | CCCCCCNC(=O)CN1C(=O)C(Cc2ccc(-c3ccc(CN(CCCC)C(=O)NC)cc3)cc2)N(C)C1=O (stereo not given) | 2500
3 | CCCCCNC(=O)CN1CC(=O)N(C)[C@@H](Cc2ccc(-c3cccc(CN(CCCC)C(=O)NC)c3)cc2)C1=O | 1700
4 | CCCCOC(=O)N(CC(=O)NCC1CC1)Cc1ccc(-c2ccccc2CN(CCCC)C(C)=O)cc1 | 3900
5 | CCCCN(Cc1cccc(-c2ccc(C(=O)NC3CCCCN(CC(=O)NCCc4ccc(Cl)cc4)C3=O)cc2)c1)C(=O)NC (stereo not given) | 260
